We go through 18 compounds from patent publication US7135477B2, “Heterocyclic compounds which inhibit leukocyte adhesion mediated by α4 integrins” (Elan Pharmaceuticals, Inc., priority 2002, dated 2006).

The nature of the data set: Cassette dosing and serum analysis for determination of bioavailability. The data set is classed as in vivo, rat. The conditions noted are these: male Sprague Dawley rats, oral cassette of 6 compounds as sodium salts, total dose 10 mg/kg, plasma at 4, 8 and 12 h, linear trapezoidal rule. As for the experimental part:
Cassette Dosing and Serum Analysis for Determination of Bioavailability
The cassette included 5 test articles and a standard compound, for a total dose of 10 mg/kg. Each compound/test article was converted to the sodium salt with equimolar 1 N NaOH and dissolved in water at 2 mg/mL. The cassette was prepared by mixing equal volumes of each of the six solutions. The cassette dosing solution was mixed well and then the pH was adjusted to 7.5–9. The dosing solution was prepared the day before the study and stirred overnight at room temperature.
Male Sprague Dawley (SD) rats from Charles River Laboratories, 6–8 weeks old were used in this screen. Rats were quarantined for at least one day and had continuous access to food and water. On the night before the administration of the cassette, the rats were fasted for approximately 16 h.
Four SD rats were assigned in each cassette. A single dose of the dosing solution was administered orally to each rat. The dosing volume (5 mL/kg) and time were recorded and rats were fed 2 h after dosing.
Blood samples were collected via cardiac puncture at the following time points: 4 h, 8 h and 12 h. Immediately prior to blood collection, rats were anesthetized with CO2 gas within 10–20 seconds. After the 12-h samples were collected, the rats were euthanized via CO2 asphyxiation followed by cervical dislocation.
Blood samples were kept in heparinized microtainer tubes under sub-ambient temperature (4° C.) before they were processed. Blood samples were centrifuged (10000 rpm for 5 minutes) and plasma samples were removed and stored in a −20° C. freezer until analyzed for drug levels. Drug levels in the plasma were analyzed using the following protocol for direct plasma precipitation.
The in vivo plasma samples were prepared in a 1.5 mL 96-well plate, by adding, in order, 100 μL of the test plasma, 150 μL of methanol, followed by vortexing for 10–20 seconds. 150 μL of 0.05 ng/μL of an Internal Standard in acetonitrile were added and vortexed for 30 seconds.
The standard curve samples were prepared in a 1.5 mL 96-well plate, by adding, in order, 100 μL of control mouse plasma, followed by 150 μL of methanol and vortexing for 10–20 seconds. 150 μL of 0.05 ng/μL of an Internal Standard in acetonitrile were added and vortexed for 30 seconds. The samples were spiked with 0–200 ng (10 concentrations) of the compound of interest in 50% methanol to obtain a standard curve range of 0.5 ng/mL–2,000 ng/mL. Again, the sample was vortexed for 30 seconds.
The samples were then spun for 20–30 minutes at 3000 rpm in an Eppendorf microfuge before 80–90% of supernatant was transferred into a clean 96-well plate. The organic solvent was then evaporated until the samples were dry (under N2 at 40° C./30–60 min (ZymarkTurbovap)).
The residue was then dissolved in […] mobile phase (50% CH3OH/0.1% TFA). LC/MS/MS was then run using a PE-Sciex API-3000 triple quadurpole mass spectrometer (SN0749707), Perkin-Elmer, Series200auto-sampler, and shimadzu 10A pump. Acquisition was done with PE-Sciex Analyst (v1.1) and data analysis and quantification were accomplished using PE-Sciex Analyst (v1.1). A 5–50 μL sample volume was injected onto a reverse phase ThermoHypersil DASH-18 column (Keystone 2.0×20 mm, 5 μm, PN: 8823025-701) using a mobile phase of 25% CH3OH, 0.1% TFA-100% CH3OH, 0.1% TFA. The run time was about 8 minutes at a flow rate of about 300 μL/minutes.
The Area Under the Curve (AUC) was calculated using the linear trapezoidal rule from t=0 to the last sampling time tx (see Handbook of Basic Pharmacokinetics, Wolfgang A. Ritschel and Gregory L. Kearns, 5th ed, 1999). AUC^0−tx=S((Cn+Cn+1)/2))·(tn+1−tn)[(μg/mL)h]
As to `CCN(CC)c1ncc(N(C)S(=O)(=O)c2ccc(F)cc2)c(N[C@@H](Cc2ccc(OC(=O)N3CCC3)cc2)C(=O)O)n1` [Example 8, N-(2-[N′,N′-diethylamino]-5-[N″-(4-fluorophenylsulfonyl)-N″-methylamino]pyrimidin-4-yl)-4′-(azetidin-1-ylcarbonyloxy)-L-phenylalanine], the “AUC (average AUC 0→12 h)” value is 2.4082 (μg/mL)h.

`CCN(CC)c1ncc(N(C)S(=O)(=O)c2ccc(F)cc2F)c(N[C@@H](Cc2ccc(OC(=O)N3CCC3)cc2)C(=O)O)n1` [Example 13, N-(2-[N′,N′-diethylamino]-5-[N″-(2,4-difluorophenylsulfonyl)-N″-methylamino]pyrimidin-4-yl)-4′-(azetidin-1-ylcarbonyloxy)-L-phenylalanine]: the “AUC (average AUC 0→12 h)” value is 1.283 (μg/mL)h.

`C#CCN(c1cnc(N(CC)CC)nc1N[C@@H](Cc1ccc(OC(=O)N2CCC2)cc1)C(=O)O)S(=O)(=O)c1ccc(F)cc1` [Example 18, N-(2-[N′,N′-diethylamino]-5-[N″-(4-fluorophenylsulfonyl)-N″-propargylamino]pyrimidin-4-yl)-4′(azetidin-1-ylcarbonyloxy)-L-phenylalanine]: the “AUC (average AUC 0→12 h)” value was 4.7528 (μg/mL)h.

Consider `CCN(CC)c1ncc(N(CC)S(=O)(=O)c2ccc(F)cc2)c(N[C@@H](Cc2ccc(OC(=O)N3CCC3)cc2)C(=O)O)n1` [Example 7, N-(2-[N′,N′-diethylamino]-5-[N″-(4-fluorophenylsulfonyl)-N″-ethylamino]pyrimidin-4-yl)-4-(azetidin-1-ylcarbonyloxy)-L-phenylalanine], for which the “AUC (average AUC 0→12 h)” value is 0.8979 (μg/mL)h.

With `C#CCN(c1cnc(N(CC)CC)nc1N[C@@H](Cc1ccc(OC(=O)N2CCC2)cc1)C(=O)O)S(=O)(=O)c1ccc(F)cc1F` [Example 17, N-(2-[N′,N′-diethylamino]-5-[N″-(2,4-difluorophenylsulfonyl)-N″-propargylamino]pyrimidin-4-yl)-4′-(azetidin-1-ylcarbonyloxy)-L-phenylalanine], the “AUC (average AUC 0→12 h)” value is 0.8628 (μg/mL)h.

`CCN(CC)c1ncc(N(CC)S(=O)(=O)c2ccc(F)cc2)c(N[C@@H](Cc2ccc(OC(=O)N3CCCC3)cc2)C(=O)O)n1` [Example 2, N-(2-[N′,N′-diethylamino]-5-[N″-(4-fluorophenylsulfonyl)-N″-ethylamino]pyrimidin-4-yl)-4′-(pyrrolidin 1-ylcarbonyloxy)-L-phenylalanine]: the “AUC (average AUC 0→12 h)” value is given as 15.971 (μg/mL)h.

Take `CCN(CC)c1ncc(N(CC)S(=O)(=O)c2ccc(Cl)cc2)c(N[C@@H](Cc2ccc(OC(=O)N3CCCC3)cc2)C(=O)O)n1` [Example 1, N-(2-[N′,N′-diethylamino]-5-[N″-(4-chlorophenylsulfonyl)-N″-ethylamino]pyrimidin-4-yl)-4′-(pyrrolidin-1-ylcarbonyloxy)-L-phenylalanine]: the “AUC (average AUC 0→12 h)” value is 14.798 (μg/mL)h.

Turning to `CCN(CC)c1ncc(N(C)S(=O)(=O)c2ccc(F)cc2)c(N[C@@H](Cc2ccc(OC(=O)N3CCCC3)cc2)C(=O)O)n1` [Example 3, N-(2-[N′,N′-diethylamino]-5-[N″-(4-fluorophenylsulfonyl)-N″-methylamino]pyrimidin-4-yl)-4′-(pyrrolidin-1-ylcarbonyloxy)-L-phenylalanine], the “AUC (average AUC 0→12 h)” value is recorded as 22.271 (μg/mL)h.

`CCN(CC)c1ncc(N(C)S(=O)(=O)c2ccc(Cl)cc2)c(N[C@@H](Cc2ccc(OC(=O)N3CCC3)cc2)C(=O)O)n1` [Example 9, N-(2-[N′,N′-diethylamino]-5-[N″-(4-chlorophenylsulfonyl)-N″-methylamino]pyrimidin-4-yl)-4′-(azetidin-1-ylcarbonyloxy)-L-phenylalanine]: the “AUC (average AUC 0→12 h)” value is recorded as 2.0774 (μg/mL)h.

In the case of `CCN(CC)c1ncc(N(CC)S(=O)(=O)c2ccc(F)cc2)c(N[C@@H](Cc2ccc(OC(=O)N3CCCCC3)cc2)C(=O)O)n1` [Example 6, N-(2-[N′,N′-diethylamino]-5-[N″-(4-fluorophenylsulfonyl)-N″-ethylamino]pyrimidin-4-yl)-4′-(piperidin-1-ylcarbonyloxy)-L-phenylalanine], the “AUC (average AUC 0→12 h)” value is 0.5125 (μg/mL)h.

For the compound `C#CCN(c1cnc(N(CC)CC)nc1N[C@@H](Cc1ccc(OC(=O)N2CCCC2)cc1)C(=O)O)S(=O)(=O)c1ccc(F)cc1F` [Example 16, N-(2-[N′,N′-diethylamino]-5-[N″-(2,4-difluorophenylsulfonyl)-N″-propargylamino]pyrimidin-4-yl)-4′-(pyrrolidin-1-ylcarbonyloxy)-L-phenylalanine], the “AUC (average AUC 0→12 h)” value is 23.808 (μg/mL)h.

Turning to `CCN(CC)c1ncc(N(C)S(=O)(=O)c2ccc(F)cc2F)c(N[C@@H](Cc2ccc(OC(=O)N3CCCC3)cc2)C(=O)O)n1` [Example 11, N-(2-[N′,N′-diethylamino]-5-[N″-(2,4-difluorophenylsulfonyl)-N″-methylamino]pyrimidin-4-yl)-4′-(pyrrolidin-1-ylcarbonyloxy)-L-phenylalanine], the “AUC (average AUC 0→12 h)” value was 14.818 (μg/mL)h.

With `CCN(CC)c1ncc(N(C)S(=O)(=O)c2ccc(Cl)cc2)c(N[C@@H](Cc2ccc(OC(=O)N3CCCC3)cc2)C(=O)O)n1` [Example 4], the “AUC (average AUC 0→12 h)” value was 13.829 (μg/mL)h.

As for `C#CCN(c1cnc(N(CC)CC)nc1N[C@@H](Cc1ccc(OC(=O)N2CCCC2)cc1)C(=O)O)S(=O)(=O)c1ccc(F)cc1` [Example 15, N-(2-[N′,N′-diethylamino]-5-[N″-(4-fluorophenylsulfonyl)-N″-propargylamino]pyrimidin4-yl)-4′-(pyrrolidin-1-ylcarbonyloxy)-L-phenylalanine], the “AUC (average AUC 0→12 h)” value is 90.317 (μg/mL)h.

Consider `CCN(CC)c1ncc(N(CC)S(=O)(=O)c2ccc(F)cc2F)c(N[C@@H](Cc2ccc(OC(=O)N3CCCC3)cc2)C(=O)O)n1` [Example 12, N-(2-[N′,N′-diethylamino]-5-[N″-(2,4-difluorophenylsulfonyl)-N″-ethylamino]pyrimidin-4-yl)-4′-(pyrrolidin-1-ylcarbonyloxy)-L-phenylalanine], for which the “AUC (average AUC 0→12 h)” value is 4.7816 (μg/mL)h.

Consider `CCN(CC)c1ncc(N(C)S(=O)(=O)c2ccc(F)cc2)c(N[C@@H](Cc2ccc(OC(=O)N3CCCCC3)cc2)C(=O)O)n1` [Example 5, N-(2-[N′,N′-diethylamino]-5-[N″-(4-fluorophenylsulfonyl)-N″-methylamino]pyrimidin-4-yl)-4′-(piperidin-1-ylcarbonyloxy)-L-phenylalanine], for which the “AUC (average AUC 0→12 h)” value is recorded as 2.1654 (μg/mL)h.

With `CCN(CC)c1ncc(N(CC)S(=O)(=O)c2ccc(Cl)cc2)c(N[C@@H](Cc2ccc(OC(=O)N3CCC3)cc2)C(=O)O)n1` [Example 10, N-(2-[N′,N′-diethylamino]-5-[N″-(4-chlorophenylsulfonyl)-N″-ethylamino]pyrimidin-4-yl)-4′-(azetidin-1-ylcarbonyloxy)-L-phenylalanine], the “AUC (average AUC 0→12 h)” value was 2.1113 (μg/mL)h.

Consider `CCN(CC)c1ncc(N(CC)S(=O)(=O)c2ccc(F)cc2F)c(N[C@@H](Cc2ccc(OC(=O)N3CCC3)cc2)C(=O)O)n1` [Example 14, N-(2-[N′N′-diethylamino]-5-[N″-(2,4-difluorophenylsulfonyl)-N″ethylamino]pyrimidin-4-yl)-4′-(azetidin-1-ylcarbonyloxy)-L-phenylalanine], for which the “AUC (average AUC 0→12 h)” value is given as 0.3566 (μg/mL)h.
